Legend:
rats [1] = test: Effect on the kaolin edema in rats; type: in vivo, Chbb:THOM-rats; conditions: 100 mg/kg p.o.
Experimental: According to Hillebrecht [Arzneimittel-Forschung 4, 607 (1954)] an edema was induced in 20 Chbb:THOM-rats (SPF) of both sexes having a body weight of 125-150 gm by subplantar injection of 0.05 ml of a 10% kaolin suspension in the hind paw. 30 minutes before, 100 mg/kg of substance B as aqua dist. solution was orally administered to 10 animals. Ten control animals received only the solvent. The thickness of the paw was measured before the administration of the test compound and 5 hours after administration. The edema-altering effect was expressed in percent of the average degree of swelling of the control animals.

rats [2] = test: Effect on diuresis in water-loaded rats; type: in vivo, Chbb:THOM-rats; conditions: for Cl^- excretion / K^+ excretion / Na^+ excretion / Urine: 5 hours
Experimental: Male Chbb:THOM-rats (SPF) having a body weight of 180-210 gm were kept away from food with free access to water for 24 hours before the test. Substance B was administered orally at dosages of 50, 100 and 200 mg/kg in aqua dist. solution of the rate of 1 ml/100 gm body weight to 6 animals/dose. Additionally, 4 ml water/100 gm body weight were administered orally. A control group received only the solvent and the same additional amount of water.
Five hours after treatment, the excreted volume of urine of each group was measured, and the concentration of Na^+, K^+ and Cl^- was determined photometrically and complexometrically.

Rat = test: Test for acute toxicity, rat; conditions: for Animals which died: 6 animals
Experimental: (§1) The acute toxicity was determined after oral administration of substance B to male and female mice, rats and dogs. The substance was administered to mice and rats in the form of a suspension in tylose and to dogs in the form of a solution in water.

Dog = test: Test for acute toxicity, dog; conditions: for Animals which died: 2 animals
Experimental: as §1

[3] = test system: Escherichia coli ATCC 9637; test: Bacteriostasis, serial dilution test; type: cell-based; conditions: 320 μg/ml
Experimental: (§2) Substance B was tested with regard to its bacteria- and fungi-inhibiting effect by the serial dilution test and agar diffusion test.

Streptococcus Aronson = test: Bacteriostasis, serial dilution test; type: cell-based; conditions: 320 μg/ml
Experimental: as §2

Sc. pyogenes ATCC 8688 = test: Bacteriostasis, serial dilution test; type: cell-based; conditions: 320 μg/ml
Experimental: as §2

[4] = test system: Staphylococcus aureus SG 511; test: Bacteriostasis, serial dilution test; type: cell-based; conditions: 320 μg/ml
Experimental: as §2

[5] = test system: Serratia marcescens ATCC 13880; test: Bacteriostasis, serial dilution test; type: cell-based; conditions: 320 μg/ml
Experimental: as §2

[6] = test system: Pseudomonas aeruginosa Hbg.; test: Bacteriostasis, serial dilution test; type: cell-based; conditions: 320 μg/ml
Experimental: as §2

Aspergillus niger [7] = test: Fungistasis, serial dilution test; type: cell-based; conditions: 320 μg/ml
Experimental: as §2

[8] = test system: Candida albicans ATCC 10231; test: Fungistasis, serial dilution test; type: cell-based; conditions: 320 μg/ml
Experimental: as §2

[9] = test system: Trychophyton mentagrophytes ATCC 9129; test: Fungistasis, serial dilution test; type: cell-based; conditions: 320 μg/ml
Experimental: as §2

taste testers = test: Determination of the relative sweetening power in comparison to saccharose; type: in vivo; conditions: compared with 3% aqueous solution of saccharose
Source text: The relative sweetening power (often also defined as degree of sweetness) of sweetening agents in comparison with saccharose (cane sugar) varies considerably with concentration. […] Therefore, for the determination of the relative sweetening power of the test compounds a 3% aqueous solution of saccharose was always used for comparison.

rats [10] = test: Effect on motility of rats (sedative or stimulating effect); type: in vivo, Chbb:THOM-rats; conditions: 100 mg/kg p.o.
Experimental: In analogy to the method described by Fuhrer and Feldhofen (Arzneimittel-Forschung 11, 1027, 1961) substance B was tested on 6 female Chbb:THOM-rats (SPF) having a body weight of 160-190 gm, after administration of 100 mg/kg p.o. in a suspension of 1% tylose. The motility of the rats in cages was measured for 30 minutes one hour after administration of the test compound. A control group received only tylose. The change in motility given in percent with regard to that of the control group was determined.

Aspergillus niger [11] = test: Fungistasis, agar diffusion test; type: cell-based; conditions: 16,000 μg/ml
Experimental: as §2

[12] = test system: Candida albicans ATCC 10231; test: Fungistasis, agar diffusion test; type: cell-based; conditions: 16,000 μg/ml
Experimental: as §2

[13] = test system: Trychophyton mentagrophytes ATCC 9129; test: Fungistasis, agar diffusion test; type: cell-based; conditions: 16,000 μg/ml
Experimental: as §2

[14] = Acid-stability in 0.1 N hydrochloric acid; type: physicochemical; conditions: 1% in 0.1 N hydrochloric acid, room temperature, 27 days
Experimental: For the stability test, substance B at a concentration of 1% was dissolved in 0.1 N hydrochloric acid and kept at room temperature for 27 days. […] The solid substance was furthermore tested in daylight and at 60° C. in the absence and in the presence of light for 4 weeks.

mice = test: Effect on reserpine-hypothermia in mice; type: in vivo, Chbb:NMRI-mice
Experimental: In analogy to Askew [Life Sci. 2, 275, (1963)] hypothermia was induced by s.c. administration of 3 mg/kg of reserpine in male Chbb:NMRI-mice (SPF) having a body weight of 20-26 gm. […] A control group received only the solvent p.o.; 1 to 4 hours after administration the temperature was measured every hour. The values given in the table are at average temperature values ±SD.

O=C1NS(=O)(=O)c2cccc(O)c21.[Na]
antiexudative effect (in words) (rats [1]): does not show any antiexudative effect in rats
Average degree of swelling (rats [1]; 5 hours): 239.0
Inhibition in % (rats [1]; 5 hours): 13.7%
Cl^- excretion (rats [2]; 50 mg/kg p.o.): 616.4 Microval/kg
K^+ excretion (rats [2]; 50 mg/kg p.o.): 456.6 Microval/kg
Na^+ excretion (rats [2]; 50 mg/kg p.o.): 456.6 Microval/kg
Urine (rats [2]; 50 mg/kg p.o.): 45.7 mL/kg
Cl^- excretion (rats [2]; 100 mg/kg p.o.): 325.5 Microval/kg
K^+ excretion (rats [2]; 100 mg/kg p.o.): 321.5 Microval/kg
Na^+ excretion (rats [2]; 100 mg/kg p.o.): 401.9 Microval/kg
Urine (rats [2]; 100 mg/kg p.o.): 40.2 mL/kg
Cl^- excretion (rats [2]; 200 mg/kg p.o.): 535.7 Microval/kg
K^+ excretion (rats [2]; 200 mg/kg p.o.): 425.1 Microval/kg
Na^+ excretion (rats [2]; 200 mg/kg p.o.): 467.6 Microval/kg
Urine (rats [2]; 200 mg/kg p.o.): 42.5 mL/kg
effect on diuresis (in words) (rats [2]; 50, 100 and 200 mg/kg p.o.): does not show any effect on diuresis in rats
Animals which died (Rat; 10 g/kg oral, 1 day): 0
Animals which died (Rat; 10 g/kg oral, 7 days): 0
Animals which died (Rat; 10 g/kg oral, 14 days): 0
deaths (in words) (Rat; 10 g/kg oral, during the observation time): no animals died
behavior (Rat; rat, in vivo, po): completely normal behavior
toxic symptoms (Rat; rat, in vivo, po): no toxic symptoms could be observed
Animals which died (Dog; 5 g/kg oral, 1 day): 0
Animals which died (Dog; 5 g/kg oral, 7 days): 0
Animals which died (Dog; 5 g/kg oral, 14 days): 0
deaths (in words) (Dog; 5 g/kg oral, during the observation time): no animals died
behavior (Dog; dog, in vivo, po): completely normal behavior
toxic symptoms (Dog; dog, in vivo, po): no toxic symptoms could be observed
inhibiting effect [3]: did not show any inhibiting effect
inhibiting effect (Streptococcus Aronson): did not show any inhibiting effect
inhibiting effect (Sc. pyogenes ATCC 8688): did not show any inhibiting effect
inhibiting effect [4]: did not show any inhibiting effect
inhibiting effect [5]: did not show any inhibiting effect
inhibiting effect [6]: did not show any inhibiting effect
inhibiting effect (Aspergillus niger [7]): did not show any inhibiting effect
inhibiting effect [8]: did not show any inhibiting effect
inhibiting effect [9]: did not show any inhibiting effect
Relative sweetening power (Saccharose = 1) (taste testers): 210
effect on motility of rats (in words) (rats [10]): does not affect the motility of the rats
Motility of rats (rats [10]; 60-90 min): 235 ± 58 contacts/animal
% motility (rats [10]; 60-90 min, vs control): 113%
inhibiting effect (Aspergillus niger [11]): did not show any inhibiting effect
inhibiting effect [12]: did not show any inhibiting effect
inhibiting effect [13]: did not show any inhibiting effect
stability in acid medium [14]: No changes could be detected
body temperature (mice; 100 mg/kg p.o., 1 hour): 26.0 °C
body temperature (mice; 100 mg/kg p.o., 2 hours): 26.7 °C
body temperature (mice; 100 mg/kg p.o., 3 hours): 26.6 °C
body temperature (mice; 100 mg/kg p.o., 4 hours): 26.8 °C
body temperature (mice; 400 mg/kg p.o. [sic], 1 hour): 24.0 °C
body temperature (mice; 400 mg/kg p.o. [sic], 2 hours): 24.7 °C
body temperature (mice; 400 mg/kg p.o. [sic], 3 hours): 25.3 °C
body temperature (mice; 400 mg/kg p.o. [sic], 4 hours): 25.9 °C
effect on reserpine-induced hypothermia (in words) (mice; 40 and 100 mg/kg p.o.): does not show an effect on hypothermia in mice induced by reserpine

Source: US4404230A, “4-Hydroxy-1,2-Benzisothiazol-3(2H)-one-1,1-dioxides and salts thereof” (priority 1980, dated 1983)
